# Like-named read-outs stand apart in the source and are kept apart here. Residues, ends and D or L forms follow the SMILES beside them. No end group written: not given here.
# Key:
# MRSA [1] = assay type: cell-based, Staphylococcus aureus
# Procedure: (§1) A series of derivatives of the NI0138-51 (SEQ ID NO:12) truncation were carried out with a view to maintaining stability of the helix and/or increasing net positive charge of the peptides (Table 3). Minimum inhibitory concentrations (MICs) were determined for each derivative against a range of Gram positive and Gram negative organisms by a modified 2-fold microtitre broth dilution method (Wu and Hancock, J Biol Chem 1999; 274: 29-35) (Table 2). […] This could not have been predicted.
# P. aeruginosa = assay type: cell-based
# Procedure: as §1
# S aureus 1195 = assay type: cell-based
# Procedure: as §1
# VISA = assay type: cell-based
# Procedure: as §1
# E. coli = assay type: cell-based; details: for Average MIC: average of triplicate experiments, Table 5
# Procedure: as §1
# [2] = tested on: Klebsiella (K. pneumoniae); assay type: cell-based
# Procedure: as §1
# [3] = tested on: Gram positive and negative bacteria; assay: Antimicrobial activity against drug-resistant pathogens, summary in words; assay type: cell-based; details: summary of Table 2
# Procedure: as §1
# N. lactamica = assay type: cell-based
# Procedure: as §1
# MRSA [4] = assay type: cell-based, Staphylococcus aureus; remark: listed apart in the source
# Procedure: (§2) Experiments were conducted in which the full-length epidermicin peptide (51 amino acids, SEQ ID NO:10) was truncated to yield the derivatives shown in FIG. 1 (SEQ ID NOs:11 to 19). NI011-37 (SEQ ID NO:11) Is the region most similar to other peptides in the public domain, NI0138-51 (SEQ ID NO:12) is the region that is most unique with respect to other peptides in the public domain. All other truncations have been carried out by removing residues from the amino-terminal end of the peptide to each lysine residue (K). Lysine is important in antimicrobial peptides as it contributes to the net positive charge, which is thought to have a key role in the mode of action of ‘cationic’ peptides, like NI01 (SEQ ID NO:10).
# S. aureus 1195 = assay type: cell-based
# Procedure: as §2
# S. saprophyticus = assay type: cell-based
# Procedure: as §2
# S. Hominis = assay type: cell-based
# Procedure: as §2
# [5] = tested on: Vanc. resistant Enterococcus; assay type: cell-based
# Procedure: as §2
# haemolysis = assay: Haemolysis assay (in vitro toxicity testing); assay type: cell-based; details: summary of Table 6
# Procedure: In addition, in vitro toxicity testing (haemolysis assays) indicates a lack of toxicity at levels well above MIC for some peptides, indicating potential for a wide therapeutic window (Table 6). […] Since increased net charge is known to be associated with higher levels of haemolysis, (Dhople and Nagaraj, Peptides 2005: 26: 217-225), this was not wholly unexpected.
# Experiments were conducted to assess the percentage haemolysis against peptide concentration for peptides SEQ ID NOs: 4, 5, 6 and 7 against full length epidermicin (SEQ ID NO:10) and SEQ ID NO:12.
# Gram-negative bacteria = assay type: cell-based; details: previous data, not presented
# Procedure: It was a most surprising finding that the truncated and modified novel peptides of the present invention based on the epidermicin peptide were effective against Gram negative bacteria.
# as §1
Compound,MIC (P. aeruginosa) [µg/mL],MIC (S aureus 1195) [µg/mL],MIC (VISA) [µg/mL],"MIC (E. coli; E. coli 50, Table 2) [µg/mL]","MIC (E. coli; E. coli 178, Table 2) [µg/mL]","MIC (E. coli; E. coli DH5α, Table 2) [µg/mL]","MIC (E. coli; E.coli 177, Table 2) [µg/mL]",MIC [2] [µg/mL],MIC (N. lactamica) [µg/mL],MIC (S. aureus 1195) [µg/mL],MIC (S. saprophyticus) [µg/mL],MIC (S. Hominis) [µg/mL],other results
"SFEWIYKQPKKLWA [SEQ ID NO:20, SFEWIYKQPKKLWA]",>64,>64,>64,>64,>64,>64,>64,>64,,,,,MIC (MRSA [1]): >64 µg/mL
"SFEWIKYQIKKLWA [SEQ ID NO:2, SFEWIKYQIKKLWA]",>64,9,,27,27,17,19,,37.3,,,,"antimicrobial activity against Gram positive and negative bacteria, in words [3]: significantly reduced activity; Average MIC (S aureus 1195): 9 µg/mL; Average MIC (E. coli; E. coli 49): 24 µg/mL; Average MIC (E. coli; E. coli 50): 27 µg/mL; Average MIC (E. coli; E. coli 177): 19 µg/mL; Average MIC (E. coli; E. coli 178): 27 µg/mL; Average MIC (E. coli; E. coli 187): 17 µg/mL; Average MIC (E. coli; E. coli DH5a): 17 µg/mL"
KHKGTILKWINAGQSFEWIYKQIKKLWA [SEQ ID NO:16],,,,,,,,,,8,8,4,MIC (MRSA [4]): 12 µg/mL
"SFEWIYKQIWKLKRGLA [SEQ ID NO:3, SFEWIYKQIWKLKRGLA]",>64,13,,11,21,9,5,>64,>64,,,,"antimicrobial activity against Gram positive and negative bacteria, in words ([3]; listed as 3): significantly reduced activity; antimicrobial activity against Gram positive and negative bacteria, in words ([3]; listed as SEQ ID: No 3): very low levels of activity; Average MIC (S aureus 1195): 13 µg/mL; Average MIC (E. coli; E. coli 49): 19 µg/mL; Average MIC (E. coli; E. coli 50): 11 µg/mL; Average MIC (E. coli; E. coli 177): 5 µg/mL; Average MIC (E. coli; E. coli 178): 21 µg/mL; Average MIC (E. coli; E. coli 187): 11 µg/mL; Average MIC (E. coli; E. coli DH5a): 9 µg/mL; activity against E coli strains tested, in words (E. coli; summary of Table 2): good activity; Average MIC [2]: >64 µg/mL"
KGQKYVSLAWKHKGTILKWINAGQSFEWIYKQIKKLWA [SEQ ID NO:14],,,,,,,,,,8,8,6,MIC [5]: 4 µg/mL
"SFEWIYKQIKKLWAKKK [SEQ ID NO:7, SFEWIYKQIKKLWAKKK]",8,1.7,,4.3,3.3,4,3,,37.3,,,,"haemolytic activity / toxicity, in words (haemolysis): relatively low levels of haemolysis"
"SFKWPYKQIKKLWA [SEQ ID NO:22, SFKWPYKQIKKLWA]",64,16,>64,,32,10.7,13.3,,,,,,
KYVSLAWKHKGTILKWINAGQSFEWIYKQIKKLWA [SEQ ID NO:15],,,,,,,,,,8,4,6,
"SFKWIYKQPKKLWAKKK [SEQ ID NO:23, SFKWIYKQPKKLWAKKK]",>64,8,>64,18.7,26.7,13.3,16,>64,,,,,
"SFKWIYKQPKKLWA [SEQ ID NO:21, SFKWIYKQPKKLWA]",>64,42.7,>64,64,64,26.7,53.3,>64,,,,,
"CC[C@H](C)[C@H](NC(=O)[C@H](CCC(N)=O)NC(=O)[C@H](CCCCN)NC(=O)[C@H](Cc1ccc(O)cc1)NC(=O)[C@@H](NC(=O)[C@H](Cc1c[nH]c2ccccc12)NC(=O)[C@H](CCCCN)NC(=O)[C@H](Cc1ccccc1)NC(=O)[C@H](CO)NC=O)[C@@H](C)CC)C(=O)N[C@@H](CCCCN)C(=O)N[C@@H](CCCCN)C(=O)N[C@@H](CC(C)C)C(=O)N[C@@H](Cc1c[nH]c2ccccc12)C(=O)N[C@@H](C)C(=O)O [SEQ ID NO:4, formyl-SFKWIYKQIKKLWA] (HELM PEPTIDE1{[O=C[*:2]].S.F.K.W.I.Y.K.Q.I.K.K.L.W.A}$$$$V2.0; C-terminus assumed)",6.7,1.7,,2.3,1.3,1.5,2,,6.7,,,,"haemolytic activity / toxicity, in words (haemolysis): higher levels of haemolytic activity"
KWINAGQSFEWIYKQIKKLWA [SEQ ID NO:18],,,,,,,,,,8,4,6,MIC [5]: 4 µg/mL
"SFEWIYKQIKKLWA [SEQ ID NO:12, SFEWIYKQIKKLWA]",64,,,7,5,8,5,,10.6,4,4,4,"MIC (MRSA [4]): 12 µg/mL; Average MIC (S aureus 1195): 4 µg/mL; Average MIC (E. coli; E. coli 49): 9 µg/mL; Average MIC (E. coli; E. coli 50): 7 µg/mL; Average MIC (E. coli; E. coli 177): 5 µg/mL; Average MIC (E. coli; E. coli 178): 5 µg/mL; Average MIC (E. coli; E. coli 187): 5 µg/mL; Average MIC (E. coli; E. coli DH5a): 8 µg/mL; haemolytic activity / toxicity, in words (haemolysis): higher levels of haemolytic activity"
"MAAFMKLIQFLATKGQKYVSLAWKHKGTILKWINAGQSFEWIYKQIKKLWA [SEQ ID NO:10, reference compound]",,,,,,,,,,0.16,0.02,0.42,MIC values against Gram-negative bacteria (Gram-negative bacteria): > 64 µg/mL; MIC (MRSA [4]): 0.03 µg/mL
KGTILKWINAGQSFEWIYKQIKKLWA [SEQ ID NO:17],,,,,,,,,,8,4,16,
KLIQFLATKGQKYVSLAWKHKGTILKWINAGQSFEWIYKQIKK [SEQ ID NO:13],,,,,,,,,,8,8,16,
"SFEWIYKQIFKLWA [SEQ ID NO:1, SFEWIYKQIFKLWA]",>64,>64,>64,>64,>64,>64,>64,>64,>64,,,,"antimicrobial activity against Gram positive and negative bacteria, in words [3]: significantly reduced activity; MIC (MRSA [1]): >64 µg/mL; Average MIC (S aureus 1195): >64 µg/mL; Average MIC (E. coli; E. coli 49): >64 µg/mL; Average MIC (E. coli; E. coli 50): >64 µg/mL; Average MIC (E. coli; E. coli 177): >64 µg/mL; Average MIC (E. coli; E. coli 178): >64 µg/mL; Average MIC (E. coli; E. coli 187): >64 µg/mL; Average MIC (E. coli; E. coli DH5a): >64 µg/mL; Average MIC [2]: >64 µg/mL"
"SFKWIYKQIKKLWA [SEQ ID NO:5, SFKWIYKQIKKLWA]",,1.2,,1.3,1.3,2,2,,4.7,,,,"haemolytic activity / toxicity, in words (haemolysis): higher levels of haemolytic activity"
MAAFMKLIQFLATKGQKYVSLAWKHKGTILKWINAGQ [SEQ ID NO:11],,,,,,,,,,8,8,12,MIC [5]: 8 µg/mL
"SFEWIYKQIKKLWAK [SEQ ID NO:6, SFEWIYKQIKKLWAK]",32,3.3,>64,4,8,6.7,4,10.7,21.3,,,,"haemolytic activity / toxicity, in words (haemolysis): higher levels of haemolytic activity"

# Source: patent US10273272B2, “Antimicrobial peptides” (Amprologix Limited, priority 2014, dated 2019)
